Assay results from patent US20070219213A1, “Use of Adrenergic N-Phenylpiperazine Antagonists, Pahrmaceutical Compositions Containning Them, and Methods of Preparing Them” (priority 2004, published 2007).

How the values were obtained:
alpha 1A subtype = target: T1, alpha 1A subtype (Rattus norvegicus, UniProt P43140); parameters: from tissue; host or cells: rat salivary gland homogenate/membranes; conditions: 0.06 nM [3H]prazosin (Michel et al.), read-out: IC50 of reference; cited from earlier work
T1 sequence (P43140 1-466): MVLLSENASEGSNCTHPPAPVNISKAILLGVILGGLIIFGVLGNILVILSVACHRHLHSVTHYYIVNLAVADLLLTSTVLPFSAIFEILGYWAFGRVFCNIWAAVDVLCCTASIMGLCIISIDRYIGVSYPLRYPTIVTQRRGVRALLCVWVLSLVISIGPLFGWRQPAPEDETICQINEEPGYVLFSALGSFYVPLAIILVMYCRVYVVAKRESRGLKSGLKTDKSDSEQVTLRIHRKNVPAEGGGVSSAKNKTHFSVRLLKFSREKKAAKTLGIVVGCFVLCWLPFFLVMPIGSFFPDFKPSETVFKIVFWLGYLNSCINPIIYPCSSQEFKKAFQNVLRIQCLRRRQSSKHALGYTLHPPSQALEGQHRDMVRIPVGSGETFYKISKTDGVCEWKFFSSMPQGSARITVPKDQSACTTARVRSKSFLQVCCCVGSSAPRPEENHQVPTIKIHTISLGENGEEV

[1] = target: T2, alpha 1D adrenoceptor (rat aorta) (Rattus norvegicus, UniProt P23944); test: Vasoconstriction assay in rat aorta induced by norepinephrine; type: cell-based; conditions: pKB, rat aorta, α1D
T2 construct: from tissue; host or cells: rat aorta segments with endothelium
T2 sequence (P23944 1-561): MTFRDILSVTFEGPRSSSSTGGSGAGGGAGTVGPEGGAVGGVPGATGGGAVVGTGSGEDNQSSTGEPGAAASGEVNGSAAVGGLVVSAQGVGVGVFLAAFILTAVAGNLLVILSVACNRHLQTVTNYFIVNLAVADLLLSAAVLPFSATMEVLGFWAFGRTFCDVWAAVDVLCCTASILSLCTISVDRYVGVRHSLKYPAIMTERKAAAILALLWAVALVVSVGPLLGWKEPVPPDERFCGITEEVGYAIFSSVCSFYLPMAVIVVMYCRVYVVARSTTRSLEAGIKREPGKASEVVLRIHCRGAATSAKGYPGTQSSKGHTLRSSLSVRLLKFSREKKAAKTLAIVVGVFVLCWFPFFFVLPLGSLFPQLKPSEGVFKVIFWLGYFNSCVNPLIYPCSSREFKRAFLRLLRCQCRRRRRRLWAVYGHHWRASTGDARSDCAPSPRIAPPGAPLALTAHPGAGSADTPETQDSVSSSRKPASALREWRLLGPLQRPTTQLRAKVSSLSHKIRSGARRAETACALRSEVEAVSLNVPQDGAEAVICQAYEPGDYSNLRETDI
Description: Vasoconstriction Assay in Mouse Aorta Induced By Norepinephrine
Aorta segments with endothelium (3 mm), withdrawn from young male rats (250-300 g), were placed in containers containing physiologic solution (NaCl 122 mM, KCl 5 mM, NaHCO3 15 mM, glucose 11.5 mM, MgCl2 1.2 mM, CaCl2 1.25 mM and KH2PO4 1.2 mM), kept at 37° C. under aeration with a mixture of 95% of O2 and 5% of CO2, and submitted to a pre-charge of 5 mN for 60 minutes. During this period, eventual tension adjustments were performed until the stabilization in 0.5 g, always with renewal with physiologic solution. Then, vasoconstriction was induced by 60 mM KCl solution, in each ring, to verify the viability of the organ on the day of experiment. The preparation was submitted to the contraction with norepinephrine (5×10^−5 M) and, then the rings were washed to reach the basal line (0% of vasoconstriction). The procedure was repeated until the obtainment of a constant curve. Later, a curve, using increasing concentrations of norepinephrine (3×10^−8-5×10^−5 M), was performed for each ring, as a positive control. The segments were washed to reach the basal line (0% of vasoconstriction) and incubated with the test compounds, individually, for 30 minutes. A second norepinephrine curve was performed and obtained data compared to the first control curve. […] The aorta rings were used once for each compound.
Determination of the LASSBio 772 Antagonist Potency (pKB) on the Vasoconstriction of Rabbit or Rat Thoracic Aorta.

α1A = target: T3, α1A (Oryctolagus cuniculus, UniProt O02824); test: Binding study in rabbit liver; conditions: rabbit liver, α1A; read-out: IC50
T3 construct: from tissue
T3 sequence (O02824 1-466): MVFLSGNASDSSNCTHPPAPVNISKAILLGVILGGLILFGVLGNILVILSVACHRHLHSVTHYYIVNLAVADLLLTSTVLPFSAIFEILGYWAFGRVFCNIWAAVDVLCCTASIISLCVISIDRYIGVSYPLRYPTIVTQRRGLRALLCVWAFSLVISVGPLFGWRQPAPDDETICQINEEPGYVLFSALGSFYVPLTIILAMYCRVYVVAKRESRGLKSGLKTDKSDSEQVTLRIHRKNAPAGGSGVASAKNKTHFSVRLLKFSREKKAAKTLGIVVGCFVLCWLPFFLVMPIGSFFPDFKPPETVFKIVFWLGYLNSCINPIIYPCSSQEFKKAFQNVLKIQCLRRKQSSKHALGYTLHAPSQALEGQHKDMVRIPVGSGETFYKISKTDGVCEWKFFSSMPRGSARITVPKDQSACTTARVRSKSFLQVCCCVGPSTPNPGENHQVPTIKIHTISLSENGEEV

alpha 1B subtype = target: T4, alpha 1B subtype (Rattus norvegicus, UniProt P15823); test: [3H]prazosin binding assay in rat liver; conditions: rat liver, α1B; read-out: IC50
T4 construct: from tissue; host or cells: rat liver homogenate/membranes
T4 sequence (P15823 1-515): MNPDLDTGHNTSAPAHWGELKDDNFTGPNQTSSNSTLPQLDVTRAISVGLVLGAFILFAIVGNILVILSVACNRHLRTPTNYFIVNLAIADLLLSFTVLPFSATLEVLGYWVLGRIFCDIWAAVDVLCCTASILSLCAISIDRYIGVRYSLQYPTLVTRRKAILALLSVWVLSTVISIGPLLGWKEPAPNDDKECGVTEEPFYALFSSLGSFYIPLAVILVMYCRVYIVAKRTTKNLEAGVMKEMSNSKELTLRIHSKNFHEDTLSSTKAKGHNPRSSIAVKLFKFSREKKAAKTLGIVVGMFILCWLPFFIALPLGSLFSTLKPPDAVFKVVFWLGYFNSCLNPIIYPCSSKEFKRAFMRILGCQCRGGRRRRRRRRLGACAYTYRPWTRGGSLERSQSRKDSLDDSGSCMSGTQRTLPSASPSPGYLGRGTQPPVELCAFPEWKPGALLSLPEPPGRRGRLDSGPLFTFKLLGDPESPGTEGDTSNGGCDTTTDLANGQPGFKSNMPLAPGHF

[2] = tested on: phenylephrine vasopressor effects; test: Inhibition of phenylephrine vasopressor effects in anesthetized rabbits; type: in vivo; conditions: rabbit, n=5
Description: Animal and Homodynamic Measurements:
The experiments were performed with male rabbits weighing 3 kg, from the CECAL (Centro de Criação de Animais de Laboratório) at Fundação Oswaldo Cruz. The animals were anesthetized with sodium pentobarbital (40 mg/kg) in the ear marginal vein, and anesthesia maintenance was obtained with supplemental intravenous (i.v.) doses of 5 mg/kg as necessary. The […] were tracheomized, inserted with a polyethylene canule, and immobilized with pancuronium bromide (1 mg/kg, i.v.), with supplemental doses of 0.2 mg/kg for each hour of experiment and artificially ventilated with a mechanical fan (Rodent ventilator 7025, Ugo Basile) with a volume of 10 ml/kg and frequency from 40 to 50 incursions/min. The right femoral vein was catheterized for drug administration.
The arterial pressure was monitored through abdominal aorta catheter via the right femoral artery and connected to a quartz transductor Hewlett Packard (1290 A), which was connected to an arterial pressure processor and recorder Hewlett Packard (system 7754 with amplifier 8805 B).
The systolic (SAP) and diastolic (DAP) arterial pressures were obtained directly from the records and the average arterial pressure (AAP) was calculated by DAP's Sum with a third of the differential pressure [[…]]. The cardiac frequency was determined by counting the pressure waves, visualized with the speed increase of the recorder paper.
The cardiac debit (DC) was monitored using an electromagnetic probe, connected to a Skalar flowmeter model MDL 1401. After left thoraxatomy, between the second and third ribs, was made an incision in the pericardium and the heart was exposed to enable the visualization and dissection of the ascending aorta for installation of the electromagnetic probe. The systemic vascular resistance (SVR) was calculated as a quotient of the average arterial pressure by the cardiac debit, multiplied by a conversion factor 80 (SVR=AAP/DC×80) and expressed in dyn/seg/cm-5.
At the conclusion of the anesthetic-surgical procedures, a 15-minute period was allowed for stabilization of the homodynamic parameters. Before any pharmacological manipulation the average arterial pressure, cardiac frequency and cardiac debit measurements were obtained. These values were considered basal homodynamic values.
Dose-Response Curve of the Phenylephrine Vasopressor Effect:
After surgical procedures and stabilization of the homodynamic parameters, a dose-response curve of the phenylephrine pressure effects was performed ([…], i.v.), that were named control curves. […]
The results were expressed as average±standard deviation (E.P.M.) The administration effects of LASSBio 772 with regard to the basal values were analyzed through variance analysis (ANOVA) for repeated measurements. […]

[3] = tested on: alpha 1A and alpha 1B adrenoceptors (rabbit aorta, α1A > α1B); conditions: literature (Yamagishi et al.); cited from earlier work
[4] = tested on: alpha 1A adrenoceptor (human prostatic membranes); conditions: similar models; literature (Motiyama et al.); cited from earlier work

COc1cccc(OC)c1OCCNCC1COc2ccccc2O1 (stereo not drawn) [WB 4101]
IC50 (alpha 1A subtype): 0.6 nM

COc1ccccc1N1CCN(CCc2ccccc2)CC1 [LASSBio 772B, 4-Phenethyl-1-(2-methoxy-phenyl)-piperazine]
Kb [1]: 0.02 nM | IC50 (α1A): 23.9 nM | IC50 (alpha 1B subtype): 130 nM | AAP increase induced by phenylephrine in the presence of compound ([2]; phenylephrine 100 μg/kg i.v.): 9±4% | SVR increase induced by phenylephrine in the presence of compound ([2]; phenylephrine 100 μg/kg i.v.): 15±5% | decrease of DC induced by phenylephrine in the presence of compound ([2]; phenylephrine i.v.): 7±2%

COc1cc2nc(N3CCN(C(=O)c4ccco4)CC3)nc(N)c2cc1OC [Prazosin, prazosin]
Kb [3]: 1.02 nM | pKB [3]: 9.05 | Kb [4]: 1.45 nM | pKB [4]: 8.84

C[C@H](Cc1cc2c(c(C(N)=O)c1)N(CCCO)CC2)NCCOc1ccccc1OCC(F)(F)F [KMD-3213]
Kb [4]: 0.35 nM | pKB [4]: 9.45

CCOc1ccccc1OCCN[C@H](C)Cc1ccc(OC)c(S(N)(=O)=O)c1 [tamsulosin]
Kb [4]: 0.2 nM | pKB [4]: 9.68
